Test results from patent US10913757B2, “Hydroxycinnamic derivatives, methods and uses thereof” (UNIVERSIDADE DO PORTO, priority 2016, dated 2021).
Entries after “also recorded” stand apart in the source; their conditions may differ.

How the values were obtained:
[1] = Iron (II) chelating properties, ferrozine assay; format: biochemical; settings: 100 μM, EDTA=100%
Experimental: In an embodiment, AntiOxCINs iron (II) chelating properties were evaluated by the ferrozine assay using ethylenediaminetetracetic acid (EDTA) as reference.
In an embodiment, AntiOxCINs iron chelating properties were evaluated by the spectrophotometric ferrozine method performed in a multiplate reader (Powerwave XS Microplate Reader) of Bio-Tech instruments.
In an embodiment, the AntiOxCINs iron chelating properties were evaluated as follows: in each well, a solution of the test compound (100 μM) and ammonium iron (II) sulphate in ammonium acetate (20 μM) were added, incubated for 10 min and the absorbance was read at 562 nm. Then, a freshly prepared solution of ferrozine (5 mM) was added to each well (96 μM final concentration). After a new incubation at 37° C. for 10 min period, the absorbance of [Fe(ferrozine)3]^2+ complex was measured at 562 nm. Blank wells were run using DMSO instead of the test compounds. EDTA was used as a reference. All compounds were tested at a final concentration of 100 μM. The absorbance of the first reading was subtracted to the final values to abolish any absorbance due to the test compounds. Data are means±SEM of three independent experiments and are expressed as % of Fe(II) chelation (EDTA=100%).

[2] = test system: rat liver mitochondria (RLM); assay: AntiOxCINs uptake by energised rat liver mitochondria (TPP-selective electrode); format: in vitro ADME; settings: FIG. 3
Experimental: In an embodiment, and as an example, mitochondrial AntiOxCINs uptake was assessed in isolated rat liver mitochondria (RLM) in response to the membrane potential. AntiOxCINs can accumulate inside mitochondria driven by the ΔΨ (FIG. 3A). Different AntiOxCINs accumulation outlines within the mitochondrial matrix have been noticed. […] However, the linear increase of AntiOxCINs lipophilicity was not directly translated into an increase in the ratio of mitochondrial matrix accumulation (FIG. 3B). The following ranking order was attained: AntiOxCIN1<AntiOxCIN2<[…]<AntiOxCIN3 (catechol series); AntiOxCIN4<AntiOxCIN7<AntiOxCIN6 (pyrogallol series) (FIG. 3C).
(§1) In an embodiment, the evaluation of AntiOxCINs functional mitochondrial toxicity profile was performed in rat liver mitochondria (RLM). RLM were prepared by tissue homogenization followed by differential centrifugations in ice-cold buffer containing 250 mM sucrose, 10 mM HEPES (pH 7.4), 1 mM EGTA, and 0.1% fat-free bovine serum albumin. After obtaining a crude mitochondrial preparation, pellets were washed twice and resuspended in washing buffer (250 mM sucrose and 10 mM HEPES, pH 7.4). The protein concentration was determined by the biuret assay using BSA as a standard.
In an embodiment, the AntiOxCINs mitochondria uptake by energized RLM was evaluated as follows: RLM (0.5 mg protein/mL) were incubated with AntiOxCINs at 37° C. under constant stirring in 1 mL of KCl medium (120 mM KCl, 10 mM HEPES, pH 7.2 and 1 mM EGTA). Five sequential 1 μM additions of each AntiOxCINs were performed to calibrate the electrode response in the presence of rotenone (1.5 μM). Then, succinate (10 mM) was added to generate AN. Valinomicin (0.2 μg/mL) was added at the end of the assay to dissipate AN. […] The mitochondrial accumulation ratio was calculated by the disappearance of AntiOxCINs from extra- to intramitochondrial medium assuming an intramitochondrial volume of 0.5 μL/mg protein and a binding correction for the mitochondrial uptake of TPP compounds.

[3] = DPPH radical scavenging activity (TAC assay); format: biochemical; settings: ethanol, absorbance 515 nm
Description: In an embodiment, the AntiOxCINs antioxidant ranking activity hierarchy was established by in vitro non-cell methods. The selected total antioxidant capacity (TAC) assays (DPPH, ABTS and GO) involved the spectrophotometric measurement of the radical absorbance decrease as a result of an in situ radical deactivation by an antioxidant. Compounds with higher antioxidant activity display lower IC50 values. […] This decrease was attenuated/ameliorated by the increment of the spacer length and/or the introduction of additional hydroxyl group in the aromatic ring.
The radical scavenging activity of AntiOxCINs was evaluated by means of total antioxidant capacity assays based on DPPH., ABTS.^+ and GO. radicals. All these methods involved the spectrophotometric measurement of the absorbance decrease resulting from radical (DPPH., ABTS.^+ or GO.) deactivation with an antioxidant. The results were expressed in IC50, which is defined as the minimum antioxidant concentration necessary to reduce the amount of radical by 50%. Antioxidant assays were performed in a multiplate reader (Powerwave XS Microplate Reader) of Bio-Tech instruments.
In an embodiment, the DPPH. radical scavenging activity was performed as follows: solutions of the test compounds with increasing concentrations (range between 0 μM and 500 μM) were prepared in ethanol. A DPPH′ ethanolic solution (6.85 mM) was also prepared and then diluted to reach the absorbance of 0.72±0.02 at 515 nm. Each compound solution (20 μL) was added to 180 μL of DPPH′ solution in triplicate, and the absorbance at 515 nm was recorded minutely over 45 minutes. […] Dose-response curves were established for the determination of IC50 values. Data are means±SEM of three independent experiments.

[4] = test system: mitochondrial permeability transition pore (mPTP) of RLM; assay: Mitochondrial permeability transition pore (mPTP) opening, mitochondrial swelling; format: biochemical, rat; settings: 2.5, 5 and 10 μM, pre-incubated 5 min before calcium, FIG. 7A-C
Experimental: In an embodiment, the AntiOxCINs effects on mitochondrial permeability transition pore (mPTP) opening were evaluated. In general, less lipophilic AntiOxCINs had no effect on mPTP opening for all tested concentrations (FIG. 7A-C).
as §1
In an embodiment, the effect of AntiOxCINs on mitochondrial permeability transition pore opening were measured as follows: mitochondrial swelling was estimated by measuring the alterations of light scattered from a mitochondrial suspension, as monitored spectrophotometrically at 540 nm. Increasing concentrations of AntiOxCINs (2.5-10 μM) were added to the reaction medium (200 mM sucrose, 1 mM KH2PO4, 10 mM Tris (pH 7.4), 5 mM succinate and 10 μM EGTA supplemented with 1.5 μM rotenone), in the presence of RLM (1 mg), and allowed to incubate for a 5 min period before the assay. The experiments were initiated by the addition of a suitable concentration of Ca^2+ (15-50 μM), titrated every day. […] The reaction was stirred continuously and the temperature maintained at 37° C. Data are means±SEM of three independent experiments and are expressed as Aabsorbance at 540 nm.

| Compound | iron (II) chelation ([1]; FIG. 2) | mitochondrial accumulation ratio [2] | IC50 [3] [µM] | effect on calcium-dependent mPTP opening [4] | iron (II) chelation ([1]; FIG. 2, methanesulfonate) |
| --- | --- | --- | --- | --- | --- |
| CS(=O)(=O)[O-].O=C(/C=C/c1ccc(O)c(O)c1)NCCCCCC[P+](c1ccccc1)(c1ccccc1)c1ccccc1 [AntiOxCIN2, (E)-(6-(3-(3,4-dihydroxyphenyl)prop-2-enamido)hexyl)triphenylphosphonium methanesulfonate] | higher iron chelation activity than caffeic acid itself | approximately the same accumulation ratio | 29.5 |  |  |
| CS(=O)(=O)[O-].O=C(/C=C/c1ccc(O)c(O)c1)NCCCCCCCC[P+](c1ccccc1)(c1ccccc1)c1ccccc1 [AntiOxCIN3, (E)-(8-(3-(3,4-dihydroxyphenyl)acrylamido)octyl)triphenylphosphoniummethanesulfonate] |  |  | 28 | inhibition of calcium-dependent mPTP opening |  |
| CS(=O)(=O)[O-].O=C(/C=C/c1cc(O)c(O)c(O)c1)NCCCCCC[P+](c1ccccc1)(c1ccccc1)c1ccccc1 [AntiOxCIN4, (E)-(6-(3-(3,4,5-trihydroxyphenyl)prop-2-enamido)hexyl)triphenylphosphonium methanesulfonate] |  | approximately the same accumulation ratio | 19 |  | higher iron chelation activity than caffeic acid itself; also recorded: remarkable iron-chelation property |
| CS(=O)(=O)[O-].O=C(/C=C/c1cc(O)c(O)c(O)c1)NCCCCCCCC[P+](c1ccccc1)(c1ccccc1)c1ccccc1 [AntiOxCIN5, (E)-(8-(3-(3,4,5-trihydroxyphenyl)acrylamido)octyl)triphenylphosphonium methanesulfonate] |  |  | 14.7 | inhibition of calcium-dependent mPTP opening |  |
| CS(=O)(=O)[O-].O=C(/C=C/c1ccc(O)c(O)c1)NCCCCCCCCCC[P+](c1ccccc1)(c1ccccc1)c1ccccc1 [AntiOxCIN6, (E)-(10-(3-(3,4-dihydroxyphenyl)acrylamido)decyl)triphenylphosphonium methanesulfonate] |  |  | 25.9 | inhibition of calcium-dependent mPTP opening |  |
| CS(=O)(=O)[O-].O=C(/C=C/c1cc(O)c(O)c(O)c1)NCCCCCCCCCC[P+](c1ccccc1)(c1ccccc1)c1ccccc1 [AntiOxCIN7, (E)-(10-(3-(3,4,5-trihydroxyphenyl)acrylamido)decyl)triphenylphosphonium methanesulfonate] |  | lower accumulation ratio | 13.7 | inhibition of calcium-dependent mPTP opening |  |
| O=C(O)/C=C/c1ccc(O)c(O)c1 [Caffeic acid, caffeic acid, reference compound] | able to chelate ferrous iron alike EDTA |  | 18.1 |  |  |
